Source: ChEMBL document CHEMBL1201862, “PubChem BioAssay data set” (2004)
The source made the active and inactive calls.

Assays:
[1] = molecular target: T1, Heat shock factor protein 1 (Mus musculus, UniProt P38532); assay: decrease of HSF1-responsive luciferase luminescence – cell-based, NIH3T3, dose retest, confirmation (AID 2382); format: functional;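 note: NIH3T3 fibroblasts with HSF1-driven luciferase reporter stressed by proteasome inhibitor MG132; luminescence from HSF1-driven luciferase expression after 8 hours of MG132 stress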
T1 sequence (P38532 whole entry): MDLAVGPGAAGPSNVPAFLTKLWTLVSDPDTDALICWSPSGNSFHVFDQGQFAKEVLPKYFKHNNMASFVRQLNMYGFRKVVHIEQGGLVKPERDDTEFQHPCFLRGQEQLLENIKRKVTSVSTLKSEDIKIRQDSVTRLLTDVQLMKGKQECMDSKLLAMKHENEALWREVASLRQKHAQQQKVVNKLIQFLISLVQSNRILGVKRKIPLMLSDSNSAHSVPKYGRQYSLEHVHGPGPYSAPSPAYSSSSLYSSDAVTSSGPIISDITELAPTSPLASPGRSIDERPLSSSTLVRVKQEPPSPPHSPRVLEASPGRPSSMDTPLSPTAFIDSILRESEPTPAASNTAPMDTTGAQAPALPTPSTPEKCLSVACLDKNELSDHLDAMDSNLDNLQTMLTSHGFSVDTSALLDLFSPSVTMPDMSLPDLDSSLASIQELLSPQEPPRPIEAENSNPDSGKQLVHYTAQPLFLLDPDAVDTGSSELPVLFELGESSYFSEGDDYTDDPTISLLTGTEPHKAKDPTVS

[2] = Trypanosoma cruzi growth suppression in host cells – NIH3T3 host cells, beta-gal luminescence, confirmation (AID 2044); format: functional, cell-based;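 note: intracellular parasites grown in NIH/3T3 mouse fibroblasts as host cells; luminescent beta-galactosidase reporter signal from transgenic T. cruzi replicating inside host cells; inhibitors lower the luminescence signal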
[3] = NIH3T3 cell viability loss – ATP luminescence, mouse fibroblasts, counter-screen, dose response (AID 2010); format: functional, cell-based;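 note: cells exposed to compound for about 90 hours before reading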
[4] = molecular target: T2, Replicative DNA helicase DnaB (Mycobacterium tuberculosis, UniProt P9WMR3); assay: DnaB intein splicing inhibitors, dose response, biochemical, cell-free fluorescence (AID 449749); format: functional
T2 sequence (P9WMR3 whole entry): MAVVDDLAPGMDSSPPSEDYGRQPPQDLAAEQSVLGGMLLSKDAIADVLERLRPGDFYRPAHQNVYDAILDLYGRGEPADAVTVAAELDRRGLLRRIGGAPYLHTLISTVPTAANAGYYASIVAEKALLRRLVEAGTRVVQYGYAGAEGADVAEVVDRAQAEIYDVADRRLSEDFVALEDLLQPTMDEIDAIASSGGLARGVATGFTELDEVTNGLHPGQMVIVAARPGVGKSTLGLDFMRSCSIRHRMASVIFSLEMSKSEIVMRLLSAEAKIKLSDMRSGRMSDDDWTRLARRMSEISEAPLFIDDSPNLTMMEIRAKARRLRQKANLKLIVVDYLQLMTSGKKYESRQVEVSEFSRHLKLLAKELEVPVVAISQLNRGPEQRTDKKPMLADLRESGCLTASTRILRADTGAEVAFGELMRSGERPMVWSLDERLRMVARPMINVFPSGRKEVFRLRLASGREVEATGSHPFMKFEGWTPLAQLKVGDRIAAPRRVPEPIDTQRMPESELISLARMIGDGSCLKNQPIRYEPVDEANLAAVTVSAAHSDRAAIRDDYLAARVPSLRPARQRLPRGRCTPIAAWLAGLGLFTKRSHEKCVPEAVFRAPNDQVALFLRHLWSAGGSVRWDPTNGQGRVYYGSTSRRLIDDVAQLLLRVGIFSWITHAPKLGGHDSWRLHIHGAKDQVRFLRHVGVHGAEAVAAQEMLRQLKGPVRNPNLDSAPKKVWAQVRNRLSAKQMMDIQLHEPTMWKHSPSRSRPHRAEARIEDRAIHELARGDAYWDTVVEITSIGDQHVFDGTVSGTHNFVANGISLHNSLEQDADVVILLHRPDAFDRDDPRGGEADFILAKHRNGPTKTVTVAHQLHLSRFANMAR

[5] = molecular target: T3, Protein RecA (Mycobacterium tuberculosis, UniProt P9WHJ3); assay: Fluorescence Cell-Free Homogeneous Dose Retest to Identify Inhibitors of RecA-Intein Splicing Activity. [Related pubchem assays (depositor defined):AID2097, AID2223, AID489010, AID492950]; format: functional
T3 sequence (P9WHJ3 whole entry): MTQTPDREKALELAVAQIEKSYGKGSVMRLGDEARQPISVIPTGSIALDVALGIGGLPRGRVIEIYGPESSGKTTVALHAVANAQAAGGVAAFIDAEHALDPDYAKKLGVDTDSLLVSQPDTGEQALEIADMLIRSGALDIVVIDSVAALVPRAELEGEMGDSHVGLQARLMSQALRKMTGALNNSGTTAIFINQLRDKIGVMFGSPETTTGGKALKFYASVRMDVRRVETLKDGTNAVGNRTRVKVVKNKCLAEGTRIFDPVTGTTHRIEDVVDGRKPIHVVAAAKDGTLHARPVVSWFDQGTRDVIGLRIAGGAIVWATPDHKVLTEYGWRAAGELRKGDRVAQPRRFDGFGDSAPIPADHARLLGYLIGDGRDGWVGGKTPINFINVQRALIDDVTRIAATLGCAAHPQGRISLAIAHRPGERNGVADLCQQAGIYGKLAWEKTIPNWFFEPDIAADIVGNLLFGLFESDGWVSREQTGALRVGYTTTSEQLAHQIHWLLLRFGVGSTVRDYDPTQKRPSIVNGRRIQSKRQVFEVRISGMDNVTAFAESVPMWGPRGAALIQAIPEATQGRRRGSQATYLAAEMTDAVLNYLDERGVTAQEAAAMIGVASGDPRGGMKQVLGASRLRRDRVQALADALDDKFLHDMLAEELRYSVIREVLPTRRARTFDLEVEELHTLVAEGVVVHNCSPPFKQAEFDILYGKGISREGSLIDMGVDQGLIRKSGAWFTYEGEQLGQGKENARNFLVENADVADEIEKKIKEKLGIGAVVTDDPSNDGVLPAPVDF

[6] = system: Streptococcus sp. 'group A'; assay: Streptococcus pyogenes SK(-)GAS viability under kanamycin – luminescence, BacTiterGlo, confirmation, counter-screen for streptokinase expression inhibitor project, dose response (AID 1900); format: functional, organism-based
[7] = molecular target: T4, Streptokinase A (Streptococcus pyogenes serotype M1, UniProt P10520); assay: viability-normalized secreted streptokinase activity reduction – plasminogen activation absorbance, OD405, dose response (AID 1914); format: functional, Streptococcus pyogenes M1 GAS;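 note: secreted streptokinase activity via plasminogen activation per viability signal from cell pellet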
T4 sequence (P10520 whole entry): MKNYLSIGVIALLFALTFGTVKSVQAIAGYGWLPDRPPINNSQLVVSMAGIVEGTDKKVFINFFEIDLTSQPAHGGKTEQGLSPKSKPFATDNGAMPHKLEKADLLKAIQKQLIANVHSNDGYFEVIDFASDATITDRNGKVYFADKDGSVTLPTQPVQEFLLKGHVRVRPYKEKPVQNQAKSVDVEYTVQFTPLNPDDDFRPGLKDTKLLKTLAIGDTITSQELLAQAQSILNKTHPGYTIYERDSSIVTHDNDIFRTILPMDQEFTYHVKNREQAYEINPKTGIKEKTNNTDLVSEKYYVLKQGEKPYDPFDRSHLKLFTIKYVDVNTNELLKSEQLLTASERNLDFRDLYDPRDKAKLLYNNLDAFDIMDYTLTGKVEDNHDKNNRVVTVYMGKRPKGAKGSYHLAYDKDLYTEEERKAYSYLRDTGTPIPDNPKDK

[8] = system: Streptococcus; assay: GAS UMAA2166 growth inhibition – luminescence, BacTiterGlo, counter-screen for streptokinase expression inhibitor project, dose response (AID 1915); format: functional, organism-based;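 note: potency for reduction of bacterial viability or growth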
[9] = molecular target: T5, Protein skinhead-1 (Caenorhabditis elegans, UniProt P34707); format: functional
T5 sequence (P34707 whole entry): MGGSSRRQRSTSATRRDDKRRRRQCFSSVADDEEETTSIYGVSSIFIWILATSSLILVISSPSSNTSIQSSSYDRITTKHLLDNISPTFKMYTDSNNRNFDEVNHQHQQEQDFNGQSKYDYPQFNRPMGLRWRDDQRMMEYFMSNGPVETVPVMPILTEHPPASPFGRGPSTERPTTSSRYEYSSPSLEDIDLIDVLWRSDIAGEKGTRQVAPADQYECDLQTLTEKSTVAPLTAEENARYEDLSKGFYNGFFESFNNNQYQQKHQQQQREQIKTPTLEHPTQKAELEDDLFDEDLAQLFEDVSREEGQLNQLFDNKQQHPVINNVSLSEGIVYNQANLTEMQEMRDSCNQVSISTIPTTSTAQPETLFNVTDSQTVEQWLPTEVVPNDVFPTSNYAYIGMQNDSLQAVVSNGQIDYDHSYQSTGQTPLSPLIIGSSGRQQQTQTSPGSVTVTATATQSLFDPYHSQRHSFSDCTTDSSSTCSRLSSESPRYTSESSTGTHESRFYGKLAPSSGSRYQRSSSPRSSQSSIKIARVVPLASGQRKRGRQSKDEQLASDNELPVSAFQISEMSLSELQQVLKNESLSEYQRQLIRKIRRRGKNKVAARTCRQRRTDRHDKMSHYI

[10] = molecular target: Cytochrome P450 3A4 (Homo sapiens, UniProt P08684);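 note: CYP3A4 tested as one member of a cytochrome P450 panel screen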
[11] = molecular target: Cytochrome P450 2C9 (Homo sapiens, UniProt P11712)
[12] = blockers of bursicon-stimulated LGR2 cAMP reporter – cell-based, HEK293, CRE-luciferase reporter, cherry pick, set 2, dose response (AID 743343); format: functional;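 note: transfected cells were stimulated with diluted bursicon conditioned medium after compound addition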
[13] = blockade of melanocortin 4 receptor signaling – cell-based, plate reader, cherry pick, counter-screen for LGR2 antagonist project, dose response (AID 743444); format: functional;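 note: transfected HEK 293 cells stimulated with alpha-MSH peptide; potency of inhibitors of the alpha-MSH evoked signal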
[14] = viability of PTEN-deleted HCT116 cells – cell-based, HCT116 PTEN knockout, dose response (AID 1047); format: functional;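 note: HCT116 colon tumor cells with PTEN knocked out; cells exposed to compound for 60 hours before readout; potency for loss of cell viability measured by luminescence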
[15] = viability of HCT116 lacking mutant beta-catenin – cell-based, human colon tumor, dose response (AID 1045); format: functional;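 note: HCT116 colon tumor cells with beta catenin knocked out; cells exposed to compound for 60 hours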
[16] = reduction of Shn3 3'UTR-driven luciferase in osteoblasts – cell-based, Clone20 osteoblasts, firefly luciferase, cherry-picked, dose response (AID 624132); format: functional;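 note: firefly luciferase luminescence from reporter carrying the Shn3 3'UTR in osteoblasts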
[17] = loss of viability in HepG2 cells – cell-based, CellTiter-Glo, cherry-picked, cytotoxicity control for Shn3 inhibitor project, dose response (AID 624134); format: functional
[18] = non-specific 3'UTR reporter inhibition in Clone20-Shn3RL – cell-based, Renilla luciferase, cherry-picked, counter-screen for Shn3 inhibitor project, dose response (AID 624133); format: functional
[19] = NIH-3T3 fibroblast cytotoxicity, dose response, cytotoxicity control, cell-based, fluorescence, Alamar Blue, secondary assay (AID 2327); format: functional;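 note: NIH-3T3 mouse fibroblasts cultured with fluconazole at 8 µg/mL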
[20] = fluconazole-exposed Candida albicans growth modulators – fluorescence, retest, confirmation (AID 2467); format: functional, cell-based

Chain of Cytochrome P450 2C9 (P11712 whole entry): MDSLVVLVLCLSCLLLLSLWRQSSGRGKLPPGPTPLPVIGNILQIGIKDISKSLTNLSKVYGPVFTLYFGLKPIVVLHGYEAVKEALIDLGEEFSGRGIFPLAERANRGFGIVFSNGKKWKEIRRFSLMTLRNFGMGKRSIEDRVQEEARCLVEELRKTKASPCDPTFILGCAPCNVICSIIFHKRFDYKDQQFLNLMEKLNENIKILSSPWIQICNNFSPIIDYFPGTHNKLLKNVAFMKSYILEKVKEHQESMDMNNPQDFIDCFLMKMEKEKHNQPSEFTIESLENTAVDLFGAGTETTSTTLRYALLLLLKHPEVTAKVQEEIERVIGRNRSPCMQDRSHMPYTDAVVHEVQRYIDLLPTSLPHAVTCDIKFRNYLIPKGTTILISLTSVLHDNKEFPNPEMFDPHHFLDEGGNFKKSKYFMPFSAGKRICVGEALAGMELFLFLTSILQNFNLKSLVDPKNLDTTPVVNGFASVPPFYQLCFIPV
Chain of Cytochrome P450 3A4 (P08684 whole entry): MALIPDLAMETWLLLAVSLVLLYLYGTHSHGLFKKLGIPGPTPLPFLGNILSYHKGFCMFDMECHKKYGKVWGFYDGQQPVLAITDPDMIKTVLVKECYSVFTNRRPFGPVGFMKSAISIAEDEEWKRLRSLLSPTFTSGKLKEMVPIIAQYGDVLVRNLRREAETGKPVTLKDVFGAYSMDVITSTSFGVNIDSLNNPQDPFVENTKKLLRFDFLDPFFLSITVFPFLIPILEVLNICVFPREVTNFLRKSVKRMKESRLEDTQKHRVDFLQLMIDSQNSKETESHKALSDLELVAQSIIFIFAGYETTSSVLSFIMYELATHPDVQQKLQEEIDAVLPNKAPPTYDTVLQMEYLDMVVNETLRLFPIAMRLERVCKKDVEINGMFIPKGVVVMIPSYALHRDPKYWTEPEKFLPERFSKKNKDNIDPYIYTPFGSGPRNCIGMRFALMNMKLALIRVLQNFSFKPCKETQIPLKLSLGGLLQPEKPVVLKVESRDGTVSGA

SMILES: O=C(CCl)N1N=C(c2cccs2)CC1c1ccco1 (configuration not stated)
- EC50 [1]: 6.29 µM (active)
- EC50 [2]: 1.98 µM (active)
- EC50 [3]: 4.92 µM (active)
- AC50 [4]: 25.1 µM (active)
- EC50 [5]: 4.21 µM (active)

SMILES: Cc1c(C)n(Cc2ccc(F)cc2)c2ccc(C(=O)N3CCN(c4ccccn4)CC3)cc12
- EC50 [6]: 16.5 µM (active)
- EC50 [7]: 146 µM (inconclusive)
- EC50 [8]: 28.4 µM (active)
- IC50 [9]: > 100 µM (inactive)

SMILES: Cn1nccc1-c1ccc(C(=O)Nc2cccc(NS(C)(=O)=O)c2)c2occc12
- IC50 [9]: > 100 µM (inactive)

SMILES: CCc1sc(N(C(=O)Cc2ccccc2)c2cccc(F)c2)nc1-c1ccc(C)cc1
- EC50 [7]: 32.6 µM (active)
- EC50 [8]: > 150 µM (not active)
- IC50 [9]: > 100 µM (inactive)
- AC50 [10]: 17.8 µM (inconclusive)
- AC50 [11]: 6.31 µM (inconclusive)

SMILES: C=CCNC(=O)c1c(Cl)nc(C)c([N+](=O)[O-])c1C
- AC50 [12]: 42.7 µM (active)
- AC50 [13]: 55.3 µM (active)

SMILES: O=C(/C=C/c1ccc(OCc2ccccc2)c(OCc2ccccc2)c1)c1cccnc1
- EC50 [14]: 8.72 µM (active)
- EC50 [15]: 6.92 µM (active)
- AC50 [16]: 5.19 µM (active)
- AC50 [17]: 40.5 µM (active)
- AC50 [18]: 19.3 µM (active)

SMILES: O=C(CSc1nnc(COc2cccc3ccccc23)o1)N1c2ccccc2CCc2ccccc21
- IC50 [9]: > 100 µM (inactive)

SMILES: COc1ccccc1/C=C1\CCCC2=C1Nc1nnnn1C2c1ccccc1OC (configuration not stated)
- EC50 [14]: 8.85 µM (active)
- EC50 [15]: 6.96 µM (active)
- AC50 [16]: 36 µM (active)

SMILES: Cc1ccccc1OCc1nc2ccccc2c(=O)n1/N=C/c1c[nH]nc1-c1ccc(Br)cc1
- EC50 [14]: 7.05 µM (active)
- EC50 [15]: 7.51 µM (active)

SMILES: O=C(CSc1nc[nH]n1)Nc1ccc(Cl)c(Cl)c1
- IC50 [9]: > 100 µM (inactive)

SMILES: Cc1ccccc1Nc1nnc(SCC(=O)NC(=O)Nc2ccc3c(c2)OCCO3)s1
- EC50 [14]: 14.6 µM (active)
- EC50 [15]: 14.5 µM (active)

SMILES: Cc1cc2ccccc2n1CCNC(=O)C1CC1
- IC50 [9]: > 100 µM (inactive)

SMILES: C(=C1/CCCC2=C1Nc1ncnn1C2c1ccccc1)/c1ccccc1 (configuration not stated)
- EC50 [2]: 3.45 µM (active)
- EC50 [14]: 3.45 µM (active)
- EC50 [3]: 6.87 µM (active)
- EC50 [15]: 2.58 µM (active)
- AC50 [11]: 7.94 µM (inconclusive)

SMILES: C/C(=N\OCc1ccc(C#N)cc1)c1cc2ccccc2o1
- EC50 [19]: > 160 µM (inconclusive)
- EC50 [20]: > 38 µM (not active)
- IC50 [9]: 64 µM (inactive)

SMILES: COc1cc(/C=C(\C#N)c2nc3ccccc3o2)ccc1O
- AC50 [4]: > 380 µM (inactive)
- EC50 [5]: 2.41 µM (active)

SMILES: CC1(Cc2cccc(C(F)(F)F)c2)C(=O)Nc2ccc(-c3ccc(F)c(Cl)c3)cc21 (configuration not stated)
- IC50 [9]: > 100 µM (inactive)

SMILES: CC1CCN(S(=O)(=O)c2ccc3c(c2)oc(=O)n3CC(=O)N2c3ccccc3CC2C)CC1 (configuration not stated)
- EC50 [14]: 39.5 µM (active)
- EC50 [15]: 30.9 µM (active)

SMILES: COC(=O)C(C#N)C(c1cccnc1)c1c(C)n[nH]c1O (configuration not stated)
- AC50 [4]: 3.08 µM (active)
- EC50 [5]: 1.2 µM (active)
